Measurements: US20130072506A1, “6,8-DISUBSTITUTED PURINE COMPOSITIONS” (priority 2011, published 2013)

Legend:
[1] = tested on: human skin fibroblast line ASF-2; experiment: Senescence-specific beta-galactosidase staining; format: cell-based
Source text: (§1) B) Cellular parameters: • (4) Cellular morphology: to evaluate cytoplasmic and nuclear stability; • (5) Cytoskeleton organization: to evaluate the stability of the cytoskeleton; • (6) Appearance of senescence-specific β-galactosidase: to rule out pro-aging effects; • (7) Lysosomal staining (Neutral red); • (8) JC-1 Staining of Mitochondria: for evaluation of mitochondrial function; • (9) Rejuvenation studies: for evaluation of reversion effect from aged phenotype to young phenotype; and
(§2) All cell culture experiments were performed on early and mid passage cultures (about 20 to 40% lifespan completed) of normal human skin fibroblast line, designated ASF-2. In order to check the effects of test compounds on senescent cells, late passage cells with more than 90% lifespan completed were used. ASF-2 cell line was established from a mammary skin biopsy obtained from a young, non-smoking and healthy […] at the time of breast reduction operation. Normal culture conditions of medium (DMEM) containing antibiotics, 10% foetal calf serum, and incubation at 37° C. with 95% humidity were used. The effects of the test compounds were determined using the following procedures.

[2] = tested on: human skin fibroblast line ASF-2; experiment: Cell attachment of human skin fibroblasts; format: cell-based; conditions: six hours of treatment, 40 to 500 μM
Protocol: A) Growth characteristics: • (1) Cell attachment frequency: to rule out immediate toxicity; • (2) Cell survival: to rule out delayed toxicity; • (3) Growth rates: to determine cell division stimulatory/inhibitory potential;
Experimental Procedures. A stock solution of 4 mM for 6-furfurylamino-8-aminopurine and 8 mM for other compounds were prepared by dissolving about […] per ml 1N HCl, followed by its appropriate dilution by the addition of Hank's buffer. The stock solution was filter sterilized, stored at 4° C., and was used for experiments by dilution it in the cell culture medium as required.
as §2

[3] = tested on: SKH-1 hairless mice; experiment: Hairless mouse assay: skin elasticity; format: in vivo; conditions: 3 weeks of topical treatment
Source text: Evaluation of cutaneous effects of new topical compounds in the hirless mouse assay. The purpose of this study was to evaluate new topical compounds for their safety and efficacy as topical skin anti-aging treatments. The hairless mouse model is a well established model for studying the treatments of photoaging. This model has been used to study mechanisms, define effective treatment regimens and assess safety for retinoids and other anti-aging products. The present study was used to investigate a new class of anti-aging compounds in comparison to classical ones. Recent clinical studies have shown that this class of compounds improve the appearance of photodamaged skin and decrease transepidermal water loss (TEWL) without causing skin irritation. […] At baseline (prior to the 1st treatment), and weekly, the dorsal skin was measured for: transepidermal water loss (TEWL); skin moisture content; and skin elasticity. […]
Skin Moisture Content & Elasticity. […] This instrument is equipped with dual probes which are placed on the skin surface and a quantitative measurement taken of the respective parameters and the measurements recorded on an integrated computer. Mean measurements was determined for each treatment group over time, and comparative statistics used to evaluate product effectiveness. […]

[4] = tested on: SKH-1 hairless mice; experiment: Hairless mouse assay: epidermal bromodeoxyuridine (BrdU) staining; format: in vivo
Source text: This study determined the effect of topical compound formulations on epidermal cell proliferation using bromodeoxyuridine as an immunohistochemical marker of cell proliferation. Histological examination of the treated and control skin were used to determine cutaneous effects of the topical compounds. Topical tretinoin 0.05% (Renova™) was used as a therapeutic control.
(§3) Experimental Design. 48 female SKH-1 hairless mice (5 weeks old, 20-25 grams, Charles River Laboratories, Wilmington, Mass.) are individually housed in filter-top cages, and acclimated for 5-7 days after delivery. The mice are divided into 8 treatment groups (n=6), including two different control groups (untreated control, vehicle control) and a therapeutic control (tretinoin 0.05% Renova™ cream). Cage cards are marked to indicate treatment groups 1-8. Water and mouse chow are provided ad libitum.
(§4) Topical Treatments. Beginning on Treatment Day 1, test products are applied topically each morning (Monday through Friday) after erythema evaluations for 3 weeks. Using a positive displacement pipette, 20 mg of each agent is applied to a 2 cm×2 cm area of the center midline of the back. The material was spread across the treatment area with the pipette tip.
Bromodeoxyuridine Injection. All animal groups are injected with bromodeoxyuridine (100 mg/kg) I.P. 4 hours after the final application. Animals are sacrificed by CO2 inhalation 3 hours later followed by cervical dislocation. The test sites are excised, and 6 mm punch biopsies are obtained from each treatment site, and from untreated controls. Biopsies are placed into labeled vials containing 4% neutral buffered formalin for paraffin embedding and anti-BrdU staining.
Bromodeoxyuridine Immunohistochemical Staining. Paraffin sections are cut to a […] thickness and stained using the BrdU Immuno-histochemistry kit (X1545K from Exalpha Biologicals, Inc.) and a standard staining protocol. The slides are weakly counterstained in Mayer's hematoxylin and scored under a light microscope for the number of BrdU-positive cells per mm of epidermis for each section. The data are expressed as mean BrdU-positive cells/mm for each treatment group. Differences in BrdU labeling in the treatment groups are statistically analyzed using the Students t-test. Representative photographs are taken of the histological sections of the BrdU-positive staining cells.

[5] = tested on: senescent human skin fibroblasts; experiment: Effects on senescent human skin fibroblasts (morphology, cell number); format: cell-based
Source text: as §1, §2

[6] = tested on: SKH-1 hairless mice; experiment: Hairless mouse assay: skin moisture content; format: in vivo
Source text: Evaluation of cutaneous effects of new topical compounds in the hirless mouse assay. The purpose of this study was to evaluate new topical compounds for their safety and efficacy as topical skin anti-aging treatments. The hairless mouse model is a well established model for studying the treatments of photoaging. […] The present study was used to investigate a new class of anti-aging compounds in comparison to classical ones. […] Topical compounds and vehicle controls were be applied daily (Monday-Friday) for 3 weeks to the dorsal skin of hairless mice. At baseline (prior to the 1st treatment), and weekly, the dorsal skin was measured for: transepidermal water loss (TEWL); skin moisture content; and skin elasticity.
as §3
Skin Moisture Content & Elasticity. The measurements of skin moisture content and skin elasticity are important noninvasive methods used to characterize the effects of moisturizers and anti-wrinkle effects on skin. A DermaLab™ combination instrument were used to measure the skin moisture content and elasticity of the target skin sites at baseline and at weekly intervals. This instrument is equipped with dual probes which are placed on the skin surface and a quantitative measurement taken of the respective parameters and the measurements recorded on an integrated computer. Mean measurements was determined for each treatment group over time, and comparative statistics used to evaluate product effectiveness.
as §4

[7] = tested on: proteasome; experiment: Proteasomal activity (chymotrypsin-like) in cell extracts; format: cell-based, human; conditions: 40 μM-200 μM
Protocol: as §2
Proteasomal activity. Chymotrypsin-like activity in cell extracts prepared from treated and untreated cells was determined by in vitro degradation of oligopeptides by the proteasome.

Nc1nc2c(NCc3ccco3)ncnc2[nH]1 [Compound 82, 6-furfurylamino-8-aminopurine]
number of prematurely senescent cells (beta-galactosidase staining) [1]: did not show any increase
Percent of cells attached [2]: not affected to any significant extent
skin elasticity [3]: better than controls tested
epidermal BrdU staining ([4]; after 3 weeks of topical treatment): more effective
Mean Nuclei Stained ([4]; epidermal BrdU staining after 3 weeks of topical treatment, 0.1% (tretinoin 0.05%)): 12.8 ± 13.3
number of surviving senescent cells ([5]; 7 to 14 days): maintains the number of surviving senescent cells
appearance of senescent cells (intracellular debris) ([5]; 40 and 80 μM, vs controls): less intracellular debris
morphology of senescent cells ([5]; after 14 days of treatment): looking relatively younger
mean moisture content ([6]; at week 3): most effective
average moisture content ([6]; compared with the vehicle): higher than that of the vehicle
improvement in the proteasomal activity [7]: 5-10%
inhibition of chymotrypsin-like proteasomal activity ([7]; compared to untreated): no inhibition
